Data reported in US8143290B2, “Chemical compounds 572” (AstraZeneca AB, priority 2006, dated 2012).
Counter-ions that a name gives are not always drawn.

Target: T1, recombinant human GR (Homo sapiens, UniProt P04150)
T1 construct: purchased Panvera/Invitrogen P2812 (kit P2893)
T1 sequence (P04150 1-777): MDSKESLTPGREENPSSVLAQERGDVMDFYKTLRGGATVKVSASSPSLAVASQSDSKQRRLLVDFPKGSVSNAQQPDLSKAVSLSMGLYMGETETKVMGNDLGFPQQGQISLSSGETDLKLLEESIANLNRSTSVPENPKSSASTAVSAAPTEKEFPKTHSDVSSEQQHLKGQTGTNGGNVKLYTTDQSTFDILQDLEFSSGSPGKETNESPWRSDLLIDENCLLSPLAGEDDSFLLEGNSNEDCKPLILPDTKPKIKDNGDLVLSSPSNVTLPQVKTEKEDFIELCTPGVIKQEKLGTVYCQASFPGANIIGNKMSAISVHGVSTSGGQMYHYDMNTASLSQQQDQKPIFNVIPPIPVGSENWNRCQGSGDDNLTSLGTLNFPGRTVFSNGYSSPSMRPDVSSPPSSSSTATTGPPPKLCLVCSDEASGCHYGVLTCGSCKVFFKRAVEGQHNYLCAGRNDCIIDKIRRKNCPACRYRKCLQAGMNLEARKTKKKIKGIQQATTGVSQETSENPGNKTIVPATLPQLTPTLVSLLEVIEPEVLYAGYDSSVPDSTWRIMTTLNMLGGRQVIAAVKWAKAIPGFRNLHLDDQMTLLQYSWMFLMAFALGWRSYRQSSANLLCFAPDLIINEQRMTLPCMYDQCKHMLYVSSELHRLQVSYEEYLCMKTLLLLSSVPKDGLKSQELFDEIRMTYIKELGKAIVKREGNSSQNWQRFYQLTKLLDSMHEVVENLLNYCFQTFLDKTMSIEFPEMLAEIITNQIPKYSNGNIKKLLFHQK
Test: Human Glucocorticoid Receptor (GR) Assay, fluorescence polarization
Format: binding
Details: GS Red tracer, incubated 2 h at r.t., XLfit model 205, read-out: GRhuFL_FP_v2 Mean IC50
Summary of the method: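 Fluorescence polarization kit assay: recombinant GR and GS Red fluorescent ligand with Stabilizing Peptide and DTT in potassium phosphate/sodium molybdate/EDTA screening buffer. Plates incubated 2 h in the dark at r.t.; DMSO served as 0% and dexamethasone as 100% control.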

Structure (SMILES)	IC50 [nM]
COc1cccc([C@@H](Oc2ccc3c(cnn3-c3ccc(F)cc3)c2)[C@H](C)NC(=O)c2ccc(Br)o2)c1 [Example 276, 5-bromo-N-[(1R,2S)-1-[1-(4-fluorophenyl)indazol-5-yl]oxy-1-(3-methoxyphenyl)propan-2-yl]furan-2-carboxamide]	12
COc1cccc([C@@H](Oc2ccc3c(cnn3-c3ccc(F)cc3)c2)[C@H](C)NC(=O)c2nnc(C)o2)c1 [Example 277, N-[(1R,2S)-1-[1-(4-fluorophenyl)indazol-5-yl]oxy-1-(3-methoxyphenyl)propan-2-yl]-5-methyl-1,3,4-oxadiazole-2-carboxamide]	4.7
COc1cccc([C@@H](Oc2ccc3c(cnn3-c3ccc(F)cc3)c2)[C@H](C)NC(=O)c2cc[nH]n2)c1 [Example 279, N-[(1R,2S)-1-[1-(4-fluorophenyl)indazol-5-yl]oxy-1-(3-methoxyphenyl)propan-2-yl]-1H-pyrazole-3-carboxamide]	3.8
COc1cccc([C@@H](Oc2ccc3c(cnn3-c3ccc(F)cc3)c2)[C@H](C)NC(=O)c2ccon2)c1 [Example 280, N-[(1R,2S)-1-[1-(4-fluorophenyl)indazol-5-yl]oxy-1-(3-methoxyphenyl)propan-2-yl]1,2-oxazole-3-carboxamide]	3.6
COc1cccc([C@@H](Oc2ccc3c(cnn3-c3ccc(F)cc3)c2)[C@H](C)NC(=O)c2nc[nH]n2)c1 [Example 281, N-[(1R,2S)-1-[1-(4-fluorophenyl)indazol-5-yl]oxy-1-(3-methoxyphenyl)propan-2-yl]-1H-1,2,4-triazole-3-carboxamide]	3.8
COc1cccc([C@@H](Oc2ccc3c(cnn3-c3ccc(F)cc3)c2)[C@H](C)NC(=O)c2cc(C)[nH]n2)c1 [Example 282, N-[(1R,2S)-1-[1-(4-fluorophenyl)indazol-5-yl]oxy-1-(3-methoxyphenyl)propan-2-yl]-5-methyl-1H-pyrazole-3-carboxamide]	2.4
COc1cccc([C@@H](Oc2ccc3c(cnn3-c3ccc(F)cc3)c2)[C@H](C)NC(=O)c2cn(C)cn2)c1 [Example 283, N-[(1R,2S)-1-[1-(4-fluorophenyl)indazol-5-yl]oxy-1-(3-methoxyphenyl)propan-2-yl]-1-methyl-imidazole-4-carboxamide]	4.7
COc1cccc([C@@H](Oc2ccc3c(cnn3-c3ccc(F)cc3)c2)[C@H](C)NC(=O)c2cnoc2C)c1 [Example 284, N-[(1R,2S)-1-[1-(4-fluorophenyl)indazol-5-yl]oxy-1-(3-methoxyphenyl)propan-2-yl]-5-methyl-1,2-oxazole-4-carboxamide]	22
COc1cccc([C@@H](Oc2ccc3c(cnn3-c3ccc(F)cc3)c2)[C@H](C)NC(=O)c2cc(C)c(C)o2)c1 [Example 286, N-[(1R,2S)-1-[1-(4-fluorophenyl)indazol-5-yl]oxy-1-(3-methoxlphenyl)propan-2-yl]-4,5-dimethyl-furan-2-carboxamide]	4.7
COc1cccc([C@@H](Oc2ccc3c(cnn3-c3ccc(F)cc3)c2)[C@H](C)NC(=O)c2cc(C)n(C)n2)c1 [Example 287, N-[(1R,2S)-1-[1-(4-fluorophenyl)indazol-5-yl]oxy-1-(3-methoxyphenyl)propan-2-yl]-1,5-dimethyl-pyrazole-3-carboxamide]	4.3
COc1cccc([C@@H](Oc2ccc3c(cnn3-c3ccc(F)cc3)c2)[C@H](C)NC(=O)c2ncsc2C)c1 [Example 288, N-[(1R,2S)-1-[1-(4-fluorophenyl)indazol-5-yl]oxy-1-(3-methoxyphenyl)propan-2-yl]-5-methyl-1,3-thiazole-4-carboxamide]	5
COc1cccc([C@@H](Oc2ccc3c(cnn3-c3ccc(F)cc3)c2)[C@H](C)NC(=O)c2scnc2C)c1 [Example 289, N-[(1R,2S)-1-[1-(4-fluorophenyl)indazol-5-yl]oxy-1-(3-methoxyphenyl)propan-2-yl]-4-methyl-1,3-thiazole-5-carboxamide]	3.9
COc1cccc([C@@H](Oc2ccc3c(cnn3-c3ccc(F)cc3)c2)[C@H](C)NC(=O)c2nc(C)cs2)c1 [Example 290, N-[(1R,2S)-1-[1-(4-fluorophenyl)indazol-5-yl]oxy-1-(3-methoxyphenyl)propan-2-yl]-4-methyl-1,3-thiazole-2-carboxamide]	3.1
COc1cccc([C@@H](Oc2ccc3c(cnn3-c3ccc(F)cc3)c2)[C@H](C)NC(=O)c2cc(C)c(C)s2)c1 [Example 291, N-[(1R,2S)-1-[1-(4-fluorophenyl)indazol-5-yl]oxy-1-(3-methoxyphenyl)propan-2-yl]-4,5-dimethyl-thiophene-2-carboxamide]	6.4
COc1cccc([C@@H](Oc2ccc3c(cnn3-c3ccc(F)cc3)c2)[C@H](C)NC(=O)c2sccc2OC)c1 [Example 292, N-[(1R,2S)-1-[1-(4-fluorophenyl)indazol-5-yl]oxy-1-(3-methoxyphenyl)propan-2-yl]-3-methoxy-thiophene-2-carboxamide]	5.7
COc1cccc([C@@H](Oc2ccc3c(cnn3-c3ccc(F)cc3)c2)[C@H](C)NC(=O)c2cc3ccccn3n2)c1 [Example 293, N-[(1R,2S)-1-[1-(4-fluorophenyl)indazol-5-yl]oxy-1-(3-methoxyphenyl)propan-2-yl]-1,9-diazabicyclo[4.3.0]nona-2,4,6,8-tetraene-8-carboxamide]	4.4
COc1cccc([C@@H](Oc2ccc3c(cnn3-c3ccc(F)cc3)c2)[C@H](C)NC(=O)c2nc3ccccc3[nH]2)c1 [Example 294, N-[(1R,2S)-1-[1-(4-fluorophenyl)indazol-5-yl]oxy-1-(3-methoxyphenyl)propan-2-yl]-1H-benzoimidazole-2-carboxamide]	4.1
COc1cccc([C@@H](Oc2ccc3c(cnn3-c3ccc(F)cc3)c2)[C@H](C)NC(=O)c2ccc(Cl)s2)c1 [Example 295, 5-chloro-N-[(1R,2S)-1-[1-(4-fluorophenyl)indazol-5-yl]oxy-1-(3-methoxyphenyl)propan-2-yl]thiophene-2-carboxamide]	5.7
COc1cccc([C@@H](Oc2ccc3c(cnn3-c3ccc(F)cc3)c2)[C@H](C)NC(=O)c2cc3ccccc3s2)c1 [Example 296, N-[(1R,2S)-1-[1-(4-fluorophenyl)indazol-5-yl]oxy-1-(3-methoxyphenyl)propan-2-yl]benzothiophene-2-carboxamide]	4
COc1cccc([C@@H](Oc2ccc3c(cnn3-c3ccc(F)cc3)c2)[C@H](C)NC(=O)c2nc3ccccc3s2)c1 [Example 297, N-[(1R,2S)-1-[1-(4-fluorophenyl)indazol-5-yl]oxy-1-(3-methoxyphenyl)propan-2-yl]benzothiazole-2-carboxamide]	8.6
COc1cccc([C@@H](Oc2ccc3c(cnn3-c3ccc(F)cc3)c2)[C@H](C)NC(=O)c2sc(C(F)(F)F)cc2O)c1 [Example 298, N-[(1R,2S)-1-[1-(4-fluorophenyl)indazol-5-yl]oxy-1-(3-methoxyphenyl)propan-2-yl]-3-hydroxy-5-(trifluoromethyl)thiophene-2-carboxamide]	15
COCc1ccc(C(=O)N[C@@H](C)[C@H](Oc2ccc3c(cnn3-c3ccc(F)cc3)c2)c2cccc(OC)c2)s1 [Example 299, N-[(1R,2S)-1-[1-(4-fluorophenyl)indazol-5-yl]oxy-1-(3-methoxyphenyl)propan-2-yl]-5-(methoxymethyl)thiophene-2-carboxamide]	3.1
C[C@H](NC(=O)C(C)(C)C)[C@H](Oc1ccc2c(cnn2-c2ccc(F)cc2)c1)c1ccccc1Cl [Example 300, N-((1R,2S)-1-(2-chlorophenyl)-1-(1-(4-fluorophenyl)-1H-indazol-5-yloxy)propan-2-yl)pivalamide]	2.4
COc1cccc([C@@H](Oc2ccc3c(cnn3-c3ccc(F)cc3)c2)[C@H](C)NC(=O)C2CCN(C(=O)OC(C)(C)C)C2)c1 (stereo partly drawn) [Example 301, tert-butyl 3-((1R,2S)-1-(1-(4-fluorophenyl)-1H-indazol-5-yloxy)-1-(3-methoxyphenyl)propan-2-ylcarbamoyl)pyrrolidine-1-carboxylate]	5.2
COc1cccc([C@@H](Oc2ccc3c(cnn3-c3ccc(F)cc3)c2)[C@H](C)NC(=O)C(C)(F)F)c1 [Example 302, 2,2-difluoro-N-((1R,2S)-1-(1-(4-fluorophenyl)-1H-indazol-5-yloxy)-1-(3-methoxyphenyl)propan-2-yl)propanamide]	3.2
COc1cccc([C@@H](Oc2ccc3c(cnn3-c3ccc(F)cc3)c2)[C@H](C)NC(=O)[C@@H](C)N)c1 [Example 303, (R)-2-amino-N-((1R,2S)-1-(1-(4-fluorophenyl)-1H-indazol-5-yloxy)-1-(3-methoxyphenyl)propan-2-yl)propanamide trifluoroacetic acid salt]	5
